Source: patent US4410548A, “Propanolamine derivatives” (Reckitt & Colman Products Limited, priority 1980, dated 1983)
Where a name gives a salt, the structure may show the parent alone. Read-outs that look alike come from different tables or passages of the source.

Key:
DOCA hypertensive rats [1] = test: antihypertensive activity (mean arterial blood pressure) after oral administration in DOCA hypertensive rats; assay type: in vivo, rat; settings: for maximal percent changes in MABP: DOCA rats; for MABP, maximum percent changes: Table 2 (in brackets); for MABP, summation of percent changes: Table 2
Description: (b) DOCA = Desoxycorticosterone acetate.
(c) MABP = Mean arterial blood pressure. Negative values represent falls
in blood pressure and conversely positive values increases in blood
pressure. The values of maximum percent changes are mean values taken fro
groups of 5-7 DOCA hypertensive rats.
(d) Values in the final column represent duration of action of the
relative increases and decreases in blood pressure with the respective
treatments. Group mean percent changes are added together for the times o
1, 2, 3 and 5 hours after oral dosage. […]
Values in the final column are summation of percent changes with, in
brackets the maximum percent changes.

DOCA hypertensive rats [2] = test: heart rate in DOCA hypertensive rats after oral administration; settings: both doses (5 and 50 mg/kg)
β-adrenoreceptor = target: T1, β-adrenoreceptor (Cavia porcellus, UniProt H0W3H1); test: antagonism of positive chronotropic responses to (-)-isoprenaline in isolated guinea-pig right atria; assay type: cell-based; settings: for times (±)-propranolol was more potent as an antagonist than the compound / times less active than (±)-propranolol: β-adrenoreceptor antagonism in vitro
T1 construct: isolated guinea-pig right atria; from tissue; host or cells: isolated guinea-pig right atria
Excerpt: Tolamolol is the approved name for 1-[2-(4-carbamoylphenoxy)ethylamino]-3-(2-methylphenoxy)propan-2-ol.
The values in this table are the mean of 4-8

DOCA hypertensive rats [3] = test: toxicity / deaths seen in the antihypertensive test in DOCA rats; assay type: in vivo, rat; settings: oral dose 100 mg/kg
Excerpt: (d) With Example B in the antihypertensive test at an oral dose of 100

[4] = oral dose 50 mg/kg, mean of groups of 5-7, negative = fall
[5] = oral dose 50 mg/kg, MABP, sum of 1, 2, 3 and 5 hours after dosage
[6] = Table 1, isolated guinea-pig atria, mean of 4-8 experiments, read-out: pA2 value against chronotropic responses of isoprenaline (converted)
[7] = oral dose 100 mg/kg, mean of groups of 5-7, negative = fall
[8] = oral dose 100 mg/kg, MABP, sum of 1, 2, 3 and 5 hours after dosage
[9] = Table 2, isolated guinea-pig atria vs isoprenaline, read-out: β-Antag. pA2 (converted)

T1 sequence (H0W3H1 1-470): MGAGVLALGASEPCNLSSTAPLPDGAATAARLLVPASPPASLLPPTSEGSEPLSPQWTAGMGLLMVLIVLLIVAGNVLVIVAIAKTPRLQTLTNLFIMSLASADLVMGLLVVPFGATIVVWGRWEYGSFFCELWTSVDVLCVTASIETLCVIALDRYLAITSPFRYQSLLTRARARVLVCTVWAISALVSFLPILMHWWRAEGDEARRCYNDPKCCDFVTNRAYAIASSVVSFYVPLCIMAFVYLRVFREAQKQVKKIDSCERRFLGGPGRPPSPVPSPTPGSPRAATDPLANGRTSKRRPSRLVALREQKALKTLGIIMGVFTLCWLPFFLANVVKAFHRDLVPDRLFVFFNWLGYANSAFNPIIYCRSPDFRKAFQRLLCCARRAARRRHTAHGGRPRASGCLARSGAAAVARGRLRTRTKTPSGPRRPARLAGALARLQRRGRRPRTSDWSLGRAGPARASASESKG

Structure (SMILES) | maximal percent changes in MABP (DOCA hypertensive rats [1]; [4]) | Summation of percent changes (DOCA hypertensive rats [1]; [5]) | Kb (β-adrenoreceptor; [6]) [nM] | maximal percent changes in MABP (DOCA hypertensive rats [1]; [7]) [%] | Summation of percent changes (DOCA hypertensive rats [1]; [8]) [%] | MABP, maximum percent changes (DOCA hypertensive rats [1]; oral dose 100 mg/kg) [%] | MABP, summation of percent changes (DOCA hypertensive rats [1]; oral dose 100 mg/kg) [%] | other results
CC(C)NCC(O)COc1cccc2ccccc12 (racemic) [(±)-Propranolol] | +11% | +38% | – | – | – | – | – | effect on blood pressure (DOCA hypertensive rats [1]; 50 mg/kg, p.o.): long-lasting increase in blood pressure; maximal percent changes in MABP (DOCA hypertensive rats [1]; oral dose 5 mg/kg, fall, group mean): -5%; Summation of percent changes (DOCA hypertensive rats [1]; oral dose 5 mg/kg, fall, sum of 1, 2, 3 and 5 hours): -6%; maximal percent changes in MABP (DOCA hypertensive rats [1]; oral dose 5 mg/kg, increase, group mean): +10%; Summation of percent changes (DOCA hypertensive rats [1]; oral dose 5 mg/kg, increase, sum of 1, 2, 3 and 5 hours): +15%; effect on mean blood pressure (DOCA hypertensive rats [1]; oral, 5.0 mg/kg): small increase in mean blood pressure followed by a non-significant transient fall; effect on heart rate (DOCA hypertensive rats [2]): decreased heart rate
Cc1ccccc1OCC(O)CNCCOc1ccc(C(N)=O)cc1 (racemic) [(±)-Tolamolol, 1-[2-(4-carbamoylphenoxy)ethylamino]-3-(2-methylphenoxy)propan-2-ol] | -20% | -47% | 17 | -30 | -88 | – | – | relative potency as β-adrenoreceptor antagonist (β-adrenoreceptor; in vitro, among the compounds of Table 1): most potent β-adrenoreceptor antagonists tested in vitro; duration of blood pressure effect versus bradycardia (DOCA hypertensive rats [1]; oral, (±)-tolamolol): of a shorter duration than the bradycardia; effect on blood pressure (DOCA hypertensive rats [1]; oral, (±)-tolamolol): falls in blood pressure which were relatively transient
COc1cc(C)c([S+](C)[O-])cc1OCCNCC(O)COc1ccccc1C (stereo not shown) [A] | – | – | – | – | – | -37 | -127 | Kb (β-adrenoreceptor; [9]): 3160 nM
COc1cc([S+](C)[O-])c(C)cc1OCCNCC(O)COc1cccc(C)c1 (stereo not shown) [C] | – | – | – | – | – | -8 | -23 | pD'2 (β-adrenoreceptor; Table 2, in pA2 column, negative log molar concentration depressing maximum agonist response by 50%, noncompetitive): 4.3; nature of interaction with isoprenaline (β-adrenoreceptor; adrenoreceptor antagonism test): noncompetitive in nature
COc1cc([S+](C)[O-])c(C)cc1OCCNCC(O)COc1ccc(C)cc1 (stereo not shown) [D] | – | – | – | – | – | -23 | -82 | Kb (β-adrenoreceptor; [9]): 1170 nM
COc1cc([S+](C)[O-])c(C)cc1OCCNCC(O)COc1ccccc1C.O=C(O)C(=O)O (stereo not shown) [Example 1, 1-[2-(2-Methoxy-5-methyl-4-methylsulphinylphenoxy)ethylamino]-3-(2-methylphenoxy)propan-2-ol oxalate salt] | -37% | -137% | 380 | -47 | -170 | -47 | -170 | times (±)-propranolol was more potent as an antagonist than the compound (β-adrenoreceptor): ~20 times
COc1cc(S(C)(=O)=O)c(C)cc1OCCNCC(O)COc1ccccc1.O=C(O)C(=O)O (stereo not shown) [Example 6, 1-[2-(2-Methoxy-5-methyl-4-methylsulphonylphenoxy)ethylamino]-3-phenoxypropan-2-ol oxalate salt] | – | – | 191 | -35 | -127 | – | – | times (±)-propranolol was more potent as an antagonist than the compound (β-adrenoreceptor): approximately 10 times
COc1cc2c(cc1OCCNCC(O)COc1ccccc1C)CCCC[S+]2[O-] (stereo not shown) [Example 8, 1-[2-(8-Methoxy-2,3,4,5-tetrahydro-1-benzothiepin-7-oxy)ethylamino]-3-(2-methylphenoxy)propan-2-ol S-oxide oxalate salt] | – | – | 28.8 | -43 | -161 | – | – | times less active than (±)-propranolol (β-adrenoreceptor): 1.5 times
COc1cc([S+](C)[O-])c(OC)cc1OCCNCC(O)COc1ccccc1C.O=C(O)C(=O)O (stereo not shown) [Example 10, 1-[2-(2,5-Dimethoxy-4-methylsulphinylphenoxy)ethylamino]-3-(2-methylphenoxy)propan-2-ol oxalate salt] | – | – | 29.5 | -36 | -131 | – | – | times less active than (±)-propranolol (β-adrenoreceptor): 1.5 times
COc1ccc(OCCNCC(O)COc2ccccc2C)c([S+](C)[O-])c1 (stereo not shown) [Example B] | – | – | – | – | – | – | – | toxicity (MABP column) (DOCA hypertensive rats [3]; Table 2): toxic; deaths of test rats (DOCA hypertensive rats [3]; antihypertensive test): 5 of the 6 test rats died
